According to patent US20230348450A1, “CARBOXYLIC ACID-CONTAINING COMPOUNDS AS MODULATORS OF BIS-PHOSPHOGLYCERATE MUTASE FOR THE TREATMENT OF SICKLE CELL DISEASE” (Genzyme Corporation, priority 2020, published 2023):

Experiments:
hBPGM = hBPGM (Homo sapiens (Human), UniProt P07738); assay: BPGM Synthase Assay; type: biochemical; settings: Table 6 additional results; read-out: huBPGM: synthase Enzyme IC50
Description: Example B1. BPGM Synthase Assay
The following materials were used in this assay: deionized water; Bisphosphoglycerate mutase (BPGM; Standard Buffer: 50 mM Tris, 0.01% Tween 20, pH 7.4); BPGM Reaction Buffer (50 mM Tris, 0.01% Tween 20, 3.23 mM KH2PO4, pH 7.4); dithiothreitol (DTT; Stock solution: 100 mM in Standard Buffer); 384-Well Black Assay Plate (Corning, P/N 3575); DMSO; BPGM Stock Solution (500 nM in BPGM Standard Buffer); Glyceraldehyde 3-phosphate dehydrogenase (GAPDH; Stock Solution: 40 U/mL in 20 mM Tris-HCL Buffer with 20% Glycerol, 1 mM EDTA, 1 mM DTT); Glyceraldehyde 3-phosphate (GAP; Stock Solution: 20 mM in BPGM Standard Buffer); 3-PG Stock Solution (500 μM in BPGM Standard Buffer); Nicotinamide adenine dinucleotide (NAD; Stock Solution: 50 mM in BPGM Standard Buffer); Koningic Acid (1 mM Stock in DMSO); Resazurin Stock Solution (10 mM in DMSO); Diaphorase Stock Solution (40 U/mL in BPGM Standard Buffer); DTT Reaction Buffer (1 mM DTT in BPGM Reaction Buffer); Enzyme Solution (5 nM BPGM, 0.4 U/mL GAPDH in DTT Reaction Buffer); GAPDH Solution (0.4 U/mL GAPDH in DTT Reaction Buffer); Substrate Solution (2 mM NAD, 20 μM 3PG, 800 μM GAP in DTT Reaction Buffer); and Resazurin Solution (5 U/mL Diaphorase, 500 μM Resazurin in BPGM Standard Buffer).
To the assay plate was added Enzyme Solution (20 uL) to columns 2-22 and 24 of the assay plate. To columns 1 and 23 was added GAPDH Solution (20 uL). A separate compound plate was prepared at the desired concentrations and all wells were normalized with 5% DMSO. The compound plate was incubated for 30 minutes at RT. Next, the substrate solution (20 μL) was dispensed to all reaction wells and the plate was incubated for 60 minutes at RT. Koningic acid (1 μL) was added and the plate was incubated for 10 minutes at RT. During this time period, the NADH fluorescence was read at ex: 360/em: 460. Next, Resazurin Solution (10 μL) was added to all reaction wells and the plate was incubated for 30 minutes at RT. The resorufin fluorescence was then read at ex:544/em:590.

[1] = target: human Bisphosphoglycerate mutase (hBPGM) (Homo sapiens (Human), UniProt P07738); assay: BPGM Phosphatase Assay; type: biochemical; settings: Table 6 additional results; read-out: huBPGM: phosphatase Enzyme EC50
Chain of human Bisphosphoglycerate mutase (hBPGM) (P07738 whole entry): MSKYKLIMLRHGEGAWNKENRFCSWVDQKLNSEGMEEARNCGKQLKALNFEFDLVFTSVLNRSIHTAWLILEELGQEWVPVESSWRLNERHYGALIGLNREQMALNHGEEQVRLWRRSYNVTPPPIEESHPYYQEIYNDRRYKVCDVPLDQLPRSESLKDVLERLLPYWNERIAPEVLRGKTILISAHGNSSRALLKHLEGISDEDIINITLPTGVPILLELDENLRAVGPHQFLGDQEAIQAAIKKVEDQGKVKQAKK
Description: Solutions of the test compounds were then added to the plate and the DMSO content was normalized across the plate. The plate was incubated at RT for 15 min. Next, the substrate 2,3-BPG (5 μL) was added to all the wells, and the plate was sealed and incubated for 24 hr at RT. After incubation, BIOMOL green dye (40 μL) was added to all the wells, the plate was shaken to mix, and the plate was incubated at RT for 20-30 min.

Chain of hBPGM (P07738 whole entry, looked up): as the sequence (P07738 whole entry) above

## Cc1nc(COC2CCCOC2)sc1-c1cccc(-c2cc(C(=O)O)cs2)n1 (stereo not shown) [Example 49]
hBPGM
  IC50: 350 nM
[1]
  EC50: 520 nM

## Cc1nc(CNC2CCOC2)sc1-c1cccc(-c2ccc(C(=O)O)cc2)c1 (stereo not shown) [Example 50]
hBPGM
  IC50: > 25000 nM
[1]
  EC50: > 25000 nM

## Cc1nc(CNC2CCOCC2)sc1-c1cccc(-c2ccc(C(=O)O)cc2)c1 [Example 51]
hBPGM
  IC50: 21000 nM
[1]
  EC50: 4300 nM

## Cc1nc(CNC2CCCOC2)sc1-c1cccc(-c2ccc(C(=O)O)cc2)c1 (stereo not shown) [Example 52]
hBPGM
  IC50: 16000 nM
[1]
  EC50: > 25000 nM

## Cc1nc(CNc2ncccn2)sc1-c1cccc(-c2ccc(C(=O)O)cc2)n1 [Example 63]
hBPGM
  IC50: 630 nM
[1]
  EC50: > 25000 nM

## Cc1nc(COc2cc(C(F)(F)F)nn2C)sc1-c1cccc(-c2ccc(C(=O)O)cc2)n1 [Example 65]
hBPGM
  IC50: 2600 nM
[1]
  EC50: > 25000 nM

## COC(=O)NCc1nc(C)c(-c2csc(-c3ccc(C(=O)NS(=O)(=O)c4ccc(OCC(=O)O)cc4)cc3)n2)s1 [Example 66]
hBPGM
  IC50: 61 nM
[1]
  EC50: 110 nM

## Cc1nc(COC(=O)N(C)C)sc1-c1cccc(-c2ccc(C(=O)O)cc2)c1 [Example 67]
hBPGM
  IC50: 870 nM
[1]
  EC50: 550 nM

## Cc1ccnc(NCc2nc(C)c(-c3cccc(-c4ccc(C(=O)O)c(O)c4)c3)s2)c1 [Example 68]
hBPGM
  IC50: 1400 nM
[1]
  EC50: 60 nM

## Cc1nc(CNC(=O)c2cccnn2)sc1-c1cccc(-c2ccc(C(=O)O)cc2)c1 [Example 71]
hBPGM
  IC50: 560 nM
[1]
  EC50: > 25000 nM

## Cc1nc(COc2ccccn2)sc1-c1cccc(-c2ccc(C(=O)O)cc2)c1 [Example 72]
hBPGM
  IC50: 480 nM
[1]
  EC50: > 25000 nM

## Cc1nc(CNC(=O)C(C)(C)C)sc1-c1cccc(-c2ccc(C(=O)O)cc2)c1 [Example 73]
hBPGM
  IC50: 2200 nM
[1]
  EC50: > 25000 nM

## Cc1nc(COc2ccc(Cl)cn2)sc1-c1cccc(-c2ccc(C(=O)O)c(O)c2)c1 [Example 74]
hBPGM
  IC50: 1800 nM
[1]
  EC50: 1100 nM

## Cc1nc(CO)sc1-c1cccc(-c2cc(C(=O)O)cs2)n1 [Example 75]
hBPGM
  IC50: 4600 nM
[1]
  EC50: > 25000 nM

## Cc1nc(COc2ncccn2)sc1-c1cccc(-c2c[nH]c(C(=O)O)c2)n1 [Example 76]
hBPGM
  IC50: 3500 nM
[1]
  EC50: > 25000 nM

## Cc1nc(COc2ncccn2)sc1-c1cccc(-c2ccc(C(=O)O)c(C#N)c2)n1 [Example 78]
hBPGM
  IC50: 180 nM
[1]
  EC50: 70 nM

## Cc1nc(COc2ncccn2)sc1-c1cccc(-c2csc(C(=O)O)c2)n1 [Example 79]
hBPGM
  IC50: 550 nM
[1]
  EC50: 110 nM

## Cc1nc(CNc2ncccn2)sc1-c1cccc(-c2ccc(C(=O)O)cc2)c1 [Example 80]
hBPGM
  IC50: 220 nM
[1]
  EC50: 1700 nM

## Cc1nc(CNC(=O)C(C)(C)C)sc1-c1cccc(-c2ccc(C(=O)O)c(O)c2)c1 [Example 81]
hBPGM
  IC50: 450 nM
[1]
  EC50: 1100 nM

## Cc1ccc(OCc2nc(C)c(-c3cccc(-c4ccc(C(=O)O)c(O)c4)c3)s2)nc1 [Example 82]
hBPGM
  IC50: 1100 nM
[1]
  EC50: 210 nM

## Cc1nc(COc2ncccn2)sc1-c1cccc(-c2ccc(C(=O)O)cc2F)n1 [Example 83]
hBPGM
  IC50: 360 nM
[1]
  EC50: 1400 nM

## Cc1cccnc1OCc1nc(C)c(-c2cccc(-c3ccc(C(=O)O)c(O)c3)c2)s1 [Example 86]
hBPGM
  IC50: 1500 nM
[1]
  EC50: 200 nM

## Cc1nc(COc2ncccn2)sc1-c1cccc(-c2csc(C(=O)O)n2)n1 [Example 87]
hBPGM
  IC50: 3400 nM
[1]
  EC50: 8700 nM

## Cc1nc(COc2ncccn2)sc1-c1cccc(-c2ccc(C(=O)O)s2)n1 [Example 88]
hBPGM
  IC50: 1000 nM
[1]
  EC50: 12000 nM

## Cc1nc(COc2ccc(C#N)cn2)sc1-c1cccc(-c2ccc(C(=O)O)c(O)c2)c1 [Example 93]
hBPGM
  IC50: 3300 nM
[1]
  EC50: 270 nM

## Cc1nc(COc2ncccn2)sc1-c1cccc(-c2cnc(C(=O)O)s2)n1 [Example 94]
hBPGM
  IC50: 11000 nM
[1]
  EC50: > 25000 nM

## Cc1nc(COc2ncccn2)sc1-c1cccc(-c2ccc(C(=O)O)cc2)n1 [Example 95]
hBPGM
  IC50: 280 nM
[1]
  EC50: 2100 nM

## Cc1nc(COc2ncccn2)sc1-c1cccc(-c2ccc(C(=O)O)c(F)c2)n1 [Example 96]
hBPGM
  IC50: 1300 nM
[1]
  EC50: 10 nM

## Cc1nc(CNC(=O)C2CC2)sc1-c1csc(-c2ccc(C(=O)O)c(O)c2)c1 [Example 97]
hBPGM
  IC50: 100 nM
[1]
  EC50: 160 nM

## Cc1ccc(Cc2nc(C)c(-c3csc(-c4cc(O)c(C(=O)O)cc4F)c3)s2)cn1 [Example 98]
hBPGM
  IC50: 170 nM
[1]
  EC50: 100 nM

## Cc1nc(Cc2cccnc2)sc1-c1cccc(-c2cc(O)c(C(=O)O)cc2F)c1 [Example 99]
hBPGM
  IC50: 400 nM
[1]
  EC50: 280 nM

## Cc1nc(Cn2cccc(C#N)c2=O)sc1-c1cccc(-c2ccc(C(=O)O)c(O)c2)c1 [Example 100]
hBPGM
  IC50: 560 nM
[1]
  EC50: 420 nM

## Cc1nc(Cn2ccccc2=O)sc1-c1cccc(-c2ccc(C(=O)O)c(O)c2)n1 [Example 101]
hBPGM
  IC50: 760 nM
[1]
  EC50: 7300 nM

## Cc1nc(COc2cccnc2)sc1-c1cccc(-c2ccc(C(=O)O)c(O)c2)c1 [Example 102]
hBPGM
  IC50: 900 nM
[1]
  EC50: 360 nM

## Cc1nc(Cn2c(C#N)cccc2=O)sc1-c1cccc(-c2ccc(C(=O)O)c(O)c2)c1 [Example 103]
hBPGM
  IC50: 950 nM
[1]
  EC50: 130 nM

## Cc1nc(Cc2ccccc2)sc1-c1cccc(-c2cc(O)c(C(=O)O)cc2F)c1 [Example 105]
hBPGM
  IC50: 1600 nM
[1]
  EC50: 290 nM

## Cc1nc(COc2cccc(C#N)c2)sc1-c1cccc(-c2ccc(C(=O)O)c(O)c2)c1 [Example 108]
hBPGM
  IC50: 3200 nM
[1]
  EC50: 500 nM

## Cc1nc(COC(=O)N(C)CCN(C)C)sc1-c1csc(-c2cc(O)c(C(=O)O)cc2F)n1 [Example 113]
hBPGM
  IC50: 130 nM
[1]
  EC50: 170 nM

## Cc1nc(CNC(=O)OCCN(C)C)sc1-c1csc(-c2cc(O)c(C(=O)O)cc2F)n1 [Example 114]
hBPGM
  IC50: 150 nM
[1]
  EC50: 170 nM

## Cc1nc(CNC(=O)CCN(C)C)sc1-c1csc(-c2cc(O)c(C(=O)O)cc2F)n1 [Example 115]
hBPGM
  IC50: 670 nM
[1]
  EC50: 180 nM

## COC(=O)NCc1nc(C)c(-c2csc(-c3cc(O)c(CC(=O)O)cc3F)n2)s1 [Example 116]
hBPGM
  IC50: 6900 nM
[1]
  EC50: > 25000 nM

## Cc1nc(CNC(=O)C(C)CN(C)C)sc1-c1csc(-c2cc(O)c(C(=O)O)cc2F)n1 (stereo not shown) [Example 117]
hBPGM
  IC50: 170 nM
[1]
  EC50: 8700 nM

## Cc1nc(COC(=O)N2CCN(C)CC2)sc1-c1csc(-c2cc(O)c(C(=O)O)cc2F)n1 [Example 118]
hBPGM
  IC50: 180 nM
[1]
  EC50: 130 nM

## COC(=O)NCc1nc(C)c(-c2csc(-c3cc(O)c(C(=O)NCC(=O)NCC(=O)O)cc3F)n2)s1 [Example 119]
hBPGM
  IC50: 340 nM
[1]
  EC50: 1800 nM

## Cc1nc(CNC(=O)CN(C)C)sc1-c1csc(-c2cc(O)c(C(=O)O)cc2F)n1 [Example 120]
hBPGM
  IC50: 500 nM
[1]
  EC50: > 25000 nM

## COCCOCCOCCOCCOCC(=O)NCc1nc(C)c(-c2csc(-c3ccc(C(=O)O)c(O)c3)n2)s1 [Example 121]
hBPGM
  IC50: 1800 nM
[1]
  EC50: 3200 nM

## Cc1nc(CNC(=O)C(C)(C)N(C)C)sc1-c1csc(-c2cc(O)c(C(=O)O)cc2F)n1 [Example 123]
hBPGM
  IC50: 530 nM
[1]
  EC50: 9700 nM

## Cc1nc(CNC(=O)C(C)(C)C)sc1-c1csc(-c2cc(O)c(C(=O)O)cc2F)n1 [Example 124]
hBPGM
  IC50: 49 nM
[1]
  EC50: 50 nM

## Cc1nc(CNC(=O)C2CCNCC2)sc1-c1csc(-c2cc(O)c(C(=O)O)cc2F)n1 [Example 125]
hBPGM
  IC50: 410 nM
[1]
  EC50: 340 nM

## Cc1nc(CNC(=O)C2CCN(C)CC2)sc1-c1csc(-c2cc(O)c(C(=O)O)cc2F)n1 [Example 126]
hBPGM
  IC50: 460 nM
[1]
  EC50: 240 nM

## Cc1nc(C)c(NC(=O)Nc2ccc(C(=O)O)c(O)c2)s1 [Example 337]
hBPGM
  IC50: > 25000 nM

## Cc1nc(C)c(COc2ccc(C(=O)O)c(O)c2)s1 [Example 338]
hBPGM
  IC50: > 25000 nM

## Cc1nc(C)c(N2CCN(c3ccc(C(=O)O)c(O)c3)C2=O)s1 [Example 339]
hBPGM
  IC50: > 25000 nM

## Cc1nc(COc2ccccn2)sc1-c1ccc(-c2ccc(C(=O)O)c(O)c2)s1 [Example 340]
hBPGM
  IC50: 3600 nM

## Cc1nc(COc2ccc(F)cn2)sc1-c1ccc(-c2ccc(C(=O)O)c(O)c2)s1 [Example 341]
hBPGM
  IC50: 4100 nM

## Cc1nc(C(=O)O)sc1-c1cccc(-c2cc(F)c3[nH]nnc3c2F)n1 [Example 342]
hBPGM
  IC50: 1900 nM
